Measurements as given in patent US20240091220A1, “METHODS OF MODULATING NEURONAL AND OLIGODENDROCYTE SURVIVAL” (priority 2021, published 2024).
“Also recorded” adds a separate entry of the source.

Key:
[1] = system: reactive ACM-mediated toxicity; conditions: previous data, Liddelow et al. 2017; cited from earlier work
oligodendrocytes [2] = assay: Oligodendrocyte live/dead survival with ethoxyquin, with or without reactive ACM; type: cell-based, rat; conditions: for Slope of simple linear regression of oligodendrocyte survival on ethoxyquin dose: increasing doses of ethoxyquin in DMSO
Description: For collection of astrocyte conditioned media, plates of astrocyte cultures from identical preps were randomly chosen as control or reactive. Reactive astrocyte cultures were treated for 24 hours with IL1α (3 ng/ml, Sigma, 13901), TNF (30 ng/ml, Cell Signaling Technology, 8902SF), and C1q (400 ng/ml, MyBioSource, MBS143105). Control and reactive astrocyte conditioned media (ACM) was collected and spun at ˜2000 g for 5 minutes to remove any dead cells or cell debris. ACM was then concentrated in a Vivaspin 30 kDa centrifugation tubes (Cytiva 28932361) to ˜10× concentration for subsequent experiments. The protein concentration of ACM was determined by Bradford Assay (Sigma-B6916) and used to ensure identical concentrations of reactive versus control ACM were used for further experiments. ACM was presented at a dose of 50 μg/ml in all experiments not otherwise denoted with an alternative concentration.
Z1 (Zeiss) or on an Incucyte ZOOM (Essen Bioscience).

oligodendrocytes [3] = conditions: dose curve, live/dead analysis 24 hours after treatment
Description: Oligodendrocytes: Oligodendrocyte lineage cells were purified by immunopanning from P6 Sprague-Dawley forebrains and cultured as previously described (Dugas and Emery, “Purification of Oligodendrocyte Precursor Cells from Rat Cortices by Immunopanning,” Cold Spring Harbor Protocols 2013(8):745-758 (2013), which is hereby incorporated by reference in its entirety). Cortices were blunt dissected and enzymatically digested using papain at 37° C. and 10% CO2. Tissue was then mechanically triturated with a 5 mL serological pipette at room temperature to generate a single-cell suspension. […]
All experiments began with identically plated cells that were randomly chosen for treatment, ensuring identical starting cell numbers for control and experimental conditions. […] Identical acquisition and illumination conditions were used within each experiment and cells were counted in ImageJ using custom macros, which involved background subtraction and thresholding following by particle counting. […]

Compound: CCOC(=O)c1ccc(NC2CCCCC2)c(N)c1 [Ferrostatin-1]
- Effect on reactive ACM-mediated (astrocyte) toxicity [1]: does not affect; also recorded: has no effect

Compound: CCOc1ccc2c(c1)C(C)=CC(C)(C)N2 [ethoxyquin]
- Slope of simple linear regression of oligodendrocyte survival on ethoxyquin dose (oligodendrocytes [2]; with 30 μg/ml reactive ACM): −0.000001788
- Slope of simple linear regression of oligodendrocyte survival on ethoxyquin dose (oligodendrocytes [2]; without reactive ACM): −0.0000025
- Effect on toxicity of reactive ACM to oligodendrocytes (oligodendrocytes [2]; with reactive ACM): had no effect; also recorded: did not impact the toxicity of reactive ACM
- Effect on oligodendrocyte survival when treated in isolation (oligodendrocytes [2]; without reactive ACM): did not impact cell survival

Compound: CCCCCCCCCCCCCCCCCCCC(=O)OC[C@H](COP(=O)([O-])OCC[N+](C)(C)C)OC(=O)CCCCCCCCCCCCCCCCCCC [phosphatidylcholines (20:0)]
- Toxicity to oligodendrocytes (survival) (oligodendrocytes [3]): toxic to oligodendrocytes in a dose-dependent fashion
